Laboratory results as given in ChEMBL document CHEMBL1201862, “PubChem BioAssay data set” (2004).
Active and inactive are the calls of the source.

Tests used:
H4 = test: Luminescence Cell-Based Dose Response HTS to Identify Activators of 5'UTR Stem-Loop Driven Prion Protein mRNA Translation in H4 Neuroglioblastoma Cells. [Related pubchem assays: 1829 (Project Summary), 1814 (Primary HTS)]; type: functional; settings: Homo sapiens
[1] = Luminescence Cell-Based Dose Response to Identify Activators of Luciferase Translation or Activity in H4-C Neuroglioblastoma Cells. [Related pubchem assays: 1829 (Project Summary), 1814 (Primary HTS)]; type: functional
[2] = Luminescence Cell-Based Dose Confirmation HTS to Identify Activators of 5'UTR Stem-Loop Driven Alpha-Synuclein mRNA Translation in H4 Neuroglioblastoma Cells. [Related pubchem assays: 1829 (Project Summary), 1814 (Primary HTS)]; type: functional
[3] = biological target: T1, Sentrin-specific protease 6 (Homo sapiens, UniProt Q9GZR1); type: functional;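 further: Luminescence-based dose-response confirmatory assay of SENP6 inhibition, following up an ultra-high-throughput screen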
T1 sequence (Q9GZR1 whole entry): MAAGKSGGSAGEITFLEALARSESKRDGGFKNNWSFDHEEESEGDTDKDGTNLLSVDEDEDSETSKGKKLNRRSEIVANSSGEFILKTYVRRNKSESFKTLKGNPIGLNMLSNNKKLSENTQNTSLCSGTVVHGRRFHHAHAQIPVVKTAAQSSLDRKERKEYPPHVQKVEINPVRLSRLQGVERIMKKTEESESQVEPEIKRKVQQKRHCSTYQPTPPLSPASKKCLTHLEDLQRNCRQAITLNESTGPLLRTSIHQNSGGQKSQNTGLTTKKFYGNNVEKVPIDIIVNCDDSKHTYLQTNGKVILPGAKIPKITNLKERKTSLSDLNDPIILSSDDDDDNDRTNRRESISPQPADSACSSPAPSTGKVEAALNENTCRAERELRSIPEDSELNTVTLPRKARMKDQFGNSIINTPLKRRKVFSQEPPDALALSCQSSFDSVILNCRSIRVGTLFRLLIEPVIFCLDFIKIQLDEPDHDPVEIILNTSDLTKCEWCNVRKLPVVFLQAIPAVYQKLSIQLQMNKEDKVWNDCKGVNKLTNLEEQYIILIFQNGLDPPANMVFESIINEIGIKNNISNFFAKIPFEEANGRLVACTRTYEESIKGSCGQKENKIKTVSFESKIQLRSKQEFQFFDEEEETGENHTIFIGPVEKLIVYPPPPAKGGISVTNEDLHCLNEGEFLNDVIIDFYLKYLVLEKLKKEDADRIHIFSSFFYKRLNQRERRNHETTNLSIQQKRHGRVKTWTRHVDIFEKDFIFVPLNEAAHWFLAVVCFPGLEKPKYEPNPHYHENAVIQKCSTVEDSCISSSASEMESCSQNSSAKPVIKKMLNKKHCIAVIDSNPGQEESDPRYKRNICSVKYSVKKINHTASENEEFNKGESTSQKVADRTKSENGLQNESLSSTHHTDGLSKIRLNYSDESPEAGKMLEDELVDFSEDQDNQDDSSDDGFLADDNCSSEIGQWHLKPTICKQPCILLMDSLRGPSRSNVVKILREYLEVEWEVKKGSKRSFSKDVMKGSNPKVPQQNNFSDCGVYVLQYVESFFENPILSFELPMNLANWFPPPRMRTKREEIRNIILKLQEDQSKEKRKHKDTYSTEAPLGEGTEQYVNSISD

[4] = Luminescence Cell-Based Dose Response to Identify Activators of 5'UTR Stem-Loop Driven Prion Protein mRNA Translation in H4-C Neuroglioblastoma Cells. [Related pubchem assays: 1829 (Project Summary), 1814 (Primary HTS)]; type: functional
Caspase-3 = biological target: T2, Caspase-3 (Homo sapiens, UniProt P42574); type: functional;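 further: Dose-response selectivity test against caspase-3 for candidate inhibitors of sentrin-specific proteases (SENPs)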
T2 sequence (P42574 whole entry): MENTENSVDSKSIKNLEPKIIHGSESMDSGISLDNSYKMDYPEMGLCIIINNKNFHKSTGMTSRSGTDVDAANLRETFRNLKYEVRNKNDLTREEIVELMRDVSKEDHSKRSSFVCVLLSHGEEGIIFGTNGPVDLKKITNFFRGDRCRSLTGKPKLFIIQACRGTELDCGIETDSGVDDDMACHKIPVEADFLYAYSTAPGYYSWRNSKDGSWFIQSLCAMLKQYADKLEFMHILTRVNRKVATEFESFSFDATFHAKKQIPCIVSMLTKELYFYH

[5] = Luminescence Cell-Based Dose Response HTS to Identify Activators of Luciferase Translation or Activity in H4 […] Cells. [Related pubchem assays: 1829 (Project Summary), 1814 (Primary HTS)]; type: functional
[6] = biological target: T3, Sentrin-specific protease 8 (Homo sapiens, UniProt Q96LD8); type: functional;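 further: luminescence read-out of SENP8 inhibition, dose-response confirmation following an ultra-high-throughput screen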
T3 sequence (Q96LD8 whole entry): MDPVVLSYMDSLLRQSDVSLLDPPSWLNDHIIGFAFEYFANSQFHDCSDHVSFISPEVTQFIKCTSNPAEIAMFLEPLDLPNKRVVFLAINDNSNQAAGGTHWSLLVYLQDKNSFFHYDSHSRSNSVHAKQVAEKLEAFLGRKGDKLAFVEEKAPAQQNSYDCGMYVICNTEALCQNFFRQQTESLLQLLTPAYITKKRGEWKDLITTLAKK

[7] = biological target: T4, Sentrin-specific protease 7 (Homo sapiens, UniProt Q9BQF6); type: functional;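 further: Luminescence-based dose-response confirmation of ultra-high-throughput screening hits, measuring inhibition of SENP7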
T4 sequence (Q9BQF6 whole entry): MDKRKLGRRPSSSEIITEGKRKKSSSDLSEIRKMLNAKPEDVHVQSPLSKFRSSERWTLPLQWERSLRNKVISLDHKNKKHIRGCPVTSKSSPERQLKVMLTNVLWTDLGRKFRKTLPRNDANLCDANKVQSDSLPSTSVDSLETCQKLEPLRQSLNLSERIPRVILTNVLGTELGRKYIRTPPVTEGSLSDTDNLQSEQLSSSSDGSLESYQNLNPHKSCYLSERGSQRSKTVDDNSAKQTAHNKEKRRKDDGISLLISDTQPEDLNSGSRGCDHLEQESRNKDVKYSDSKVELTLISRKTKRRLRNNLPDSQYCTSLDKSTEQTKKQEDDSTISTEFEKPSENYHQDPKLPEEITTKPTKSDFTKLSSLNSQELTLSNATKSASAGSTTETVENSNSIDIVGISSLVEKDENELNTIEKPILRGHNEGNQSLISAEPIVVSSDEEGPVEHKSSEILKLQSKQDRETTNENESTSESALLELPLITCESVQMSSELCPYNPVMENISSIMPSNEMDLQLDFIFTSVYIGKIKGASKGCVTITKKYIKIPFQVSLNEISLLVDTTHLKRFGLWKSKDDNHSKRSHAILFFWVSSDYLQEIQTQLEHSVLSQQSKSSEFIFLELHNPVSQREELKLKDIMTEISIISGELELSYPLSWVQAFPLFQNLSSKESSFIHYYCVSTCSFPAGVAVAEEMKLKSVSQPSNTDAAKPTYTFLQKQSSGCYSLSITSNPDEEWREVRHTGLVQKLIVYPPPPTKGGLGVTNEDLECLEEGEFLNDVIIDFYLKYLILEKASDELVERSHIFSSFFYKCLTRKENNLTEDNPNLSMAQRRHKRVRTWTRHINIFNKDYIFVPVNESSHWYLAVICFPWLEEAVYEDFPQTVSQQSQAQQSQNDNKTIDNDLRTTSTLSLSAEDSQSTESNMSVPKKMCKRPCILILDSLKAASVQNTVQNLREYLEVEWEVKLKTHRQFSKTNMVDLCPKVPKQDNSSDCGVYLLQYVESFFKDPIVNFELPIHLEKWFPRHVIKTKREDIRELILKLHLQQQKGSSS

[8] = Luminescence Cell-Based Dose Confirmation to Identify Activators of 5'UTR Stem-Loop Driven Alpha-Synuclein mRNA Translation in H4 Neuroglioblastoma Cells. [Related pubchem assays: 1829 (Project Summary), 1814 (Primary HTS)]; type: functional
[9] = M. tuberculosis H37Rv growth inhibitors, H37Rv strain (AID 1626); type: functional
[10] = biological target: T5, Mannose-6-phosphate isomerase (Homo sapiens, UniProt P34949); test: MPI enzyme activity inhibition – biochemical, fluorescence intensity, coupled assay, primary screen (AID 1209)
T5 sequence (P34949 whole entry): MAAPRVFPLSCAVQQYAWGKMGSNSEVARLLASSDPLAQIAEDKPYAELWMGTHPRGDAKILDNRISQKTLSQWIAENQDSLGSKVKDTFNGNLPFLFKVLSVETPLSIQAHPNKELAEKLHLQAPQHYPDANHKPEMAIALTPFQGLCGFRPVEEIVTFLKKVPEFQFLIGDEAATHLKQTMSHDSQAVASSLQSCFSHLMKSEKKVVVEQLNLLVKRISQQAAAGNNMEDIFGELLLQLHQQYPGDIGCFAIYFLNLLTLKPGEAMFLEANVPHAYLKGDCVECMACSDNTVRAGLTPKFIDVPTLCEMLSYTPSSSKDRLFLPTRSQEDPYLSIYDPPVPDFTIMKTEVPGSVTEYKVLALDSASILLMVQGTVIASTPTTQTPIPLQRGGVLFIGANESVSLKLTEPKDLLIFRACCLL

[11] = biological target: T5, Mannose-6-phosphate isomerase; test: MPI inhibition at elevated mannose 6-phosphate – biochemical, fluorescence intensity, high mannose 6-phosphate, primary screen (AID 1220)
[12] = Luminescence Cell-Based Dose Retest to Confirm Inhibitors of Cancer Stem Cells. [Related pubchem assays (depositor defined):AID2717, AID2721]; type: functional; settings: Homo sapiens
[13] = biological target: FAD-linked sulfhydryl oxidase ALR (Homo sapiens, UniProt P55789); test: ALR-catalysed DTT oxidation blockers – biochemical, H2O2 detection, luminescence, cherry-pick, dose response (AID 493248)
FAD-linked sulfhydryl oxidase ALR, sequence (P55789 whole entry): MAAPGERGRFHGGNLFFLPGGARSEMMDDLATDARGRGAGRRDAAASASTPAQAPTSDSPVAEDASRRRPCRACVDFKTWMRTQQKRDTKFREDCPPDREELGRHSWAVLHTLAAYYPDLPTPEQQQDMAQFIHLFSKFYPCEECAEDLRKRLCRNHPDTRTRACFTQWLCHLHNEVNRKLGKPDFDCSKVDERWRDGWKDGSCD

[14] = A cytotoxicity screen of small molecule inhibitors of the PhoP region in Salmonella typhi identified in the primary screen. [Related pubchem assays: 1850, 1864, 1985 ]; type: functional

**Q.** For `O=C1c2ccccc2C(=O)N1CCSc1ccccc1`, which EC50 (H4) is on record?
**A.** < 0.1 µM (active)

**Q.** And the EC50 [1]?
**A.** 0.42 µM (active)

**Q.** And the EC50 [2]?
**A.** 21.9 µM (active)

**Q.** What about the IC50 [3] of the same compound?
**A.** 30.4 µM (active)

**Q.** And the EC50 [4]?
**A.** 1.41 µM (active)

**Q.** What about the IC50 (Caspase-3) of the same compound?
**A.** 14.5 µM (active)

**Q.** And the EC50 [5]?
**A.** 0.18 µM (active)

**Q.** What about the IC50 [6] of the same compound?
**A.** 35 µM (active)

**Q.** What about the IC50 [7] of the same compound?
**A.** 9.56 µM (active)

**Q.** What about the EC50 [8] of the same compound?
**A.** 0.279 µM (active)

**Q.** For `CCOC(=O)c1ccc(NC(C)=C2C(=O)NC(=O)NC2=O)cc1`, which IC50 [9] is on record?
**A.** > 100 µM (active)

**Q.** For `CC(C)CCSc1cc(NCCO)c([N+](=O)[O-])c2nonc12`, which IC50 [10] is on record?
**A.** > 50 µM (not active)

**Q.** What about the IC50 [11] of the same compound?
**A.** > 50 µM (not active)

**Q.** Which IC50 [9] does the source give for `COc1ccc(NC2=CC(c3ccc(OC)cc3)N(c3ccc(OC)cc3)C2=O)cc1` (centres undefined) here?
**A.** > 100 µM (active)

**Q.** Which results are given for `c1ccc(CSCc2cn3ccsc3n2)cc1`?
**A.** EC50 (H4): 7.85 µM (active); EC50 [2]: 0.562 µM (active); IC50 [10]: > 50 µM (not active); EC50 [5]: 40.7 µM (active); IC50 [11]: > 50 µM (not active)

**Q.** With `O=C(NCc1ccco1)c1ccc2c(c1)N(Cc1ccccc1)CCS2` as the compound, how does the AC50 [12] read?
**A.** 11.3 µM (active)

**Q.** What about the AC50 [13] of the same compound?
**A.** 81.2 µM (active)

**Q.** What about the EC50 [14] of the same compound?
**A.** > 50 µM (active)

**Q.** For `CCCCC(=O)Nc1ccc2c(c1)oc1ccccc12`, which IC50 [9] is on record?
**A.** > 100 µM (active)

**Q.** For `C=CCSc1nnc(NC(=O)CSc2nc3ccccc3o2)s1`, which EC50 [14] is on record?
**A.** > 50 µM (active)
